According to publication PMC11062899, “De novo development of small cyclic peptides that are orally bioavailable” (Nature Chemical Biology, 2023):
Values joined by “and” are separate entries in the source; they are usually repeats but may differ in a detail not shown here. Identical values can stand only once.

Assays:
[1] = Metabolic stability in rat liver microsomes (RLMs); details: rat, microsomes
[2] = Peptide stability in simulated intestinal fluid (SIF); type: in vitro ADME, porcine; details: simulated gi fluid; 8 h, 37 °C, pH 6.8; read-out: Proteolytic stability: SIF (8 h) % remaining
Method: (§1) Simulated gastric and intestinal fluids were prepared according to the States Pharmacopeia specifications (Test Solutions, United States Pharmacopeia 35, NF 30, 2012). SGF: 0.2 g of sodium chloride was dissolved in 50 ml of water, and the pH was adjusted to 1.2 by addition of 0.7 ml of 10 M hydrochloric acid. Then, 0.32 g of porcine pepsin (Sigma-Aldrich, P7125) was dissolved under gentle agitation, and the volume was filled up to 100 ml with Milli-Q water. SIF: 0.68 g of monobasic potassium phosphate was dissolved in 25 ml of Milli-Q water, and the pH was adjusted to 6.8 by adding 7.7 ml of a 0.2 M sodium hydroxide solution. Next, 1 g of porcine pancreatin (Sigma-Aldrich, P3292) was added under gentle agitation, and the volume was adjusted to 100 ml with Milli-Q water to afford a fine suspension. To test the stability in simulated gastrointestinal fluids, 396 μl of SGF or SIF was pre-heated at 37 °C for 10 min, and 4 μl of a 1 mM peptide solution in DMSO was added. […] Supernatant was analyzed by LC–MS to measure the peptide concentrations at the different timepoints. Residual peptide was calculated by normalizing the concentrations measured at T1 to T0.

[3] = tested on: porcine pancreatin; test: as above; type: in vitro ADME; details: after 8 h vs 0 h (TIC); average of R1-R3
Method: as §1

[4] = Passive artificial membrane permeability (PAMPA)
[5] = target: T1, porcine pepsin (Sus scrofa, UniProt P00791); test: Peptide stability in simulated gastric fluid (SGF); type: in vitro ADME
T1 construct: 0.32 g of porcine pepsin (Sigma-Aldrich, P7125) was dissolved under gentle agitation; purchased Sigma-Aldrich P7125
T1 sequence (P00791 60-385): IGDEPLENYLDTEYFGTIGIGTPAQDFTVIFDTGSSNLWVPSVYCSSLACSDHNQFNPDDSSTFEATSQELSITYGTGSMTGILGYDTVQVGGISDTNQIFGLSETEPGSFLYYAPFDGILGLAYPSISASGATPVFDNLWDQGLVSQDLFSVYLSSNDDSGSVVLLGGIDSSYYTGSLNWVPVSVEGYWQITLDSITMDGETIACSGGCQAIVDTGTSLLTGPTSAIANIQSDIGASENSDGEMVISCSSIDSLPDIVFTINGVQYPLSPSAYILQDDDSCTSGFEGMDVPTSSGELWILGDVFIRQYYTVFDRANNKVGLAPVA
Method: as §1

[6] = target: T2, rat α-thrombin (Rattus norvegicus, UniProt P18292); test: Protease inhibition, Ki for rat α-thrombin (fluorogenic substrate Z-Gly-Gly-Arg-AMC); type: biochemical; details: replicates R1-R3
T2 construct: rat α-thrombin (Molecular Innovations) were used at final concentrations of 2 nM and 3 nM; purchased Molecular Innovations
Procedure, shortened: (§2)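 Inhibition was measured as AMC fluorescence from 50 μM substrate, monitored for 30 min at 25 °C, relative to a peptide-free control. Human and rat enzymes were present at 2 nM and 3 nM final, respectively, in 50 mM Tris-HCl pH 7.4, 150 mM NaCl, 10 mM MgCl2, 1 mM CaCl2. Ki derives from fitted IC50 via Cheng–Prusoff.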

[7] = target: human α-thrombin (Homo sapiens, UniProt P00734); test: Protease inhibition, Ki for human α-thrombin (fluorogenic substrate Z-Gly-Gly-Arg-AMC); type: biochemical; details: replicates R1-R3
Procedure, shortened: as §2

[8] = peptide 1.33E+02 uM, slope of proteolytic substrate cleavage over time

Structure (SMILES): O=C(N[C@H]1CSCCS(=O)(=O)CCSCCNC(=O)C2(CC2)CNC(=O)[C@H](Cc2ccccc2)NC1=O)c1ccc(Cl)s1 [compound 16]
- microsomal CLint ([1]; CL (ul/min/mg protein) R1, RLM CL, replicate R1): 61 µL/min/mg
- microsomal CLint ([1]; CL (ul/min/mg protein) R2, RLM CL, replicate R2): 51.4 µL/min/mg
- microsomal CLint ([1]; CL (ul/min/mg protein) R3, RLM CL, replicate R3): 62.2 µL/min/mg
- half-life ([1]; Half Life (min) R1, RLM metabolic stability, replicate R1, 0-60 min): 22.7 min
- half-life ([1]; Half Life (min) R2, RLM metabolic stability, replicate R2, 0-60 min): 26.9 min
- half-life ([1]; Half Life (min) R3, RLM metabolic stability, replicate R3, 0-60 min): 22.3 min
- half-life ([1]; Metabolic stability: Half life T1/2 (min), RLMs, mean and SD, three measurements): 24 ± 2 min
- microsomal CLint ([1]; Metabolic stability: RLM CL (ul/min/mg), RLMs, mean and SD, three measurements): 58 ± 5 µL/min/mg
- remaining at 8 h [2]: 6.3 ± 1.9%
- SIF stability, Residual peptide Average [3]: 6.32
- PAMPA permeability: % permeability ([4]; 50 μM, 12–18 h, acceptor concentration relative to equilibrium): 8.6 ± 3.0%
- Papp at 50 μM ([4]; PAMPA, pH 7.4): 0.575 ×10⁻⁶ cm/s
- Permeability% Average ([4]; PAMPA, average of R1-R3): 8.6%
- Permeability% R1 ([4]; PAMPA, replicate R1, TIC of top well sample relative to sample at theoretical equilibrium): 11.91%
- Permeability% R3 ([4]; PAMPA, replicate R3, TIC of top well sample relative to sample at theoretical equilibrium): 7.66%
- SGF stability, Residual peptide Average ([5]; after 8 h vs 0 h (TIC), average of R1-R3): 98.52
- SGF stability, Residual peptide ([5]; after 8 h vs 0 h (TIC), single replicates R1-R3): 104.99 and 99.11 and 91.47
- remaining at 8 h ([5]; simulated gi fluid, 8 h, 37 °C, pH 1.2, read-out: Proteolytic stability: SGF (8 h) % remaining): 99 ± 7%
- Rat alpha thrombin inhibition, slope normalized to DMSO [6, 8]: 3.3 and 2.8 and 2.1
- Rat alpha thrombin inhibition, slope normalized to DMSO ([6]; peptide 1.67E+01 uM): 6.6 and 5.4 and 5.1
- Rat alpha thrombin inhibition, slope normalized to DMSO ([6]; peptide 2.08E+00 uM): 33.9 and 33.4 and 32.2
- Rat alpha thrombin inhibition, slope normalized to DMSO ([6]; peptide 3.33E+01 uM): 4.4 and 3.4 and 3.5
- Rat alpha thrombin inhibition, slope normalized to DMSO ([6]; peptide 4.17E+00 uM): 19.8 and 18.5 and 18.4
- Rat alpha thrombin inhibition, slope normalized to DMSO ([6]; peptide 6.67E+01 uM): 3.3 and 1.7 and 2.4
- Rat alpha thrombin inhibition, slope normalized to DMSO ([6]; peptide 8.33E+00 uM): 11.8 and 11.2 and 10.2
- Human alpha thrombin inhibition, slope normalized to DMSO ([7]; peptide 1.02E-03 uM): 95.7 (2×) and 101.7
- Human alpha thrombin inhibition, slope normalized to DMSO ([7]; peptide 1.04E+00 uM): 62.0 and 61.5 and 59.7
- Human alpha thrombin inhibition, slope normalized to DMSO ([7]; peptide 1.27E-04 uM): 99.4 and 101.3 and 98.3
- Human alpha thrombin inhibition, slope normalized to DMSO ([7]; peptide 1.30E-01 uM): 89.0 and 89.6 and 91.9
- Human alpha thrombin inhibition, slope normalized to DMSO [7, 8]: 4.8 and 2.4 and 6.7
- Human alpha thrombin inhibition, slope normalized to DMSO ([7]; peptide 1.63E-02 uM): 103.7 and 97.9 and 94.4
- Human alpha thrombin inhibition, slope normalized to DMSO ([7]; peptide 1.67E+01 uM): -1.3 and 11.2 and 10.7
- Human alpha thrombin inhibition, slope normalized to DMSO ([7]; peptide 2.03E-03 uM): 102.2 and 96.9 and 97.7
- Human alpha thrombin inhibition, slope normalized to DMSO ([7]; peptide 2.08E+00 uM): 40.1 and 46.6 and 47.4
- Human alpha thrombin inhibition, slope normalized to DMSO ([7]; peptide 2.54E-04 uM): 100.3 and 97.2 and 96.3
- Human alpha thrombin inhibition, slope normalized to DMSO ([7]; peptide 2.60E-01 uM): 83.3 and 73.2 and 85.9
- Human alpha thrombin inhibition, slope normalized to DMSO ([7]; peptide 3.18E-05 uM): 101.8 and 98.5 and 103.1
- Human alpha thrombin inhibition, slope normalized to DMSO ([7]; peptide 3.26E-02 uM): 95.9 and 94.2 and 94.5
- Human alpha thrombin inhibition, slope normalized to DMSO ([7]; peptide 3.33E+01 uM): 6.5 (2×) and 8.7
- Human alpha thrombin inhibition, slope normalized to DMSO ([7]; peptide 4.07E-03 uM): 101.7 and 97.8 and 102.2
- Human alpha thrombin inhibition, slope normalized to DMSO ([7]; peptide 4.17E+00 uM): 27.0 and 27.6 and 28.2
- Human alpha thrombin inhibition, slope normalized to DMSO ([7]; peptide 5.09E-04 uM): 97.5 and 98.8 and 97.2
- Human alpha thrombin inhibition, slope normalized to DMSO ([7]; peptide 5.21E-01 uM): 78.3 and 65.6 and 76.6
- Human alpha thrombin inhibition, slope normalized to DMSO ([7]; peptide 6.36E-05 uM): 105.9 and 99.3 and 96.8
- Human alpha thrombin inhibition, slope normalized to DMSO ([7]; peptide 6.51E-02 uM): 92.3 and 91.0 and 94.1
- Human alpha thrombin inhibition, slope normalized to DMSO ([7]; peptide 6.67E+01 uM): 5.1 and 4.9 and 7.0
- Human alpha thrombin inhibition, slope normalized to DMSO ([7]; peptide 8.14E-03 uM): 97.0 (2×) and 91.0
- Human alpha thrombin inhibition, slope normalized to DMSO ([7]; peptide 8.33E+00 uM): 19.7 and 13.2 and 20.2
